The source made the active and inactive calls. The calls are words filed in the database; no cut-off is given here.
Legend:
[1] = Toxicity in C57BL/6 mouse assessed as body weight loss upto 200 mg/kg, ip measured after 24 hrs; type: organism-based; details: in vivo
[2] = Toxicity in C57BL/6 mouse assessed as serum creatinine level at 200 mg/kg, ip measured after 24 hrs (reference value: 32.258 umol/L); type: organism-based; details: in vivo
[3] = Toxicity in C57BL/6 mouse assessed as serum ALP level at 100 mg/kg, ip measured after 24 hrs (reference value: 250.654 U/L); type: organism-based; details: in vivo
[4] = biological target: T1, Microtubule-associated protein 1 light chain 3 beta/Epidermal growth factor receptor (Homo sapiens, UniProt P00533+Q9GZQ8); assay: ATTEC activity at LC3B/EGFR in MG132-treated human HCC827 cells assessed as protein degradation at 1 uM incubated for 12 hrs by Western blot analysis; type: cell-based
PC-9 [5] = assay: Anti-tumor activity against human PC-9 cells implanted in NOD-SCID mouse at 5 mg/kg, ip administered every other day for 3 weeks relative to control; type: functional; details: PC-9, 504 h, read-out: TGI
[6] = biological target: T1, Microtubule-associated protein 1 light chain 3 beta/Epidermal growth factor receptor; assay: ATTEC activity at LC3B/EGFR in human HCC827 cells assessed as protein degradation by immunoblot analysis; type: cell-based
[7] = Half life in Sprague-Dawley rat at 20 mg/kg, po; type: ADME, organism-based; details: in vivo
PC-9 [8] = assay: Inhibition of colony formation in human PC-9 cells incubated for 2 weeks by crystal violet staining based analysis; type: functional, cell-based; details: dose 0.1-10 µM
[9] = biological target: T1, Microtubule-associated protein 1 light chain 3 beta/Epidermal growth factor receptor; assay: ATTEC activity at LC3B/EGFR in human NCI-H1975 cells assessed as protein degradation; type: cell-based
[10] = biological target: T1, Microtubule-associated protein 1 light chain 3 beta/Epidermal growth factor receptor; assay: ATTEC activity at LC3B/EGFR in human HCC827 cells assessed as increase in density of lysosomes incubated for 4 hrs by LysoTracker Red staining based analysis; type: cell-based
[11] = Toxicity in C57BL/6 mouse assessed as serum TBIL level at 100 mg/kg, ip measured after 24 hrs (reference value: 18.958 umol/L); type: organism-based; details: in vivo
[12] = biological target: T1, Microtubule-associated protein 1 light chain 3 beta/Epidermal growth factor receptor; assay: ATTEC activity at LC3B/EGFR in human PC-9 cells assessed as protein degradation; type: cell-based
[13] = Toxicity in C57BL/6 mouse assessed as serum ALP level at 200 mg/kg, ip measured after 24 hrs (reference value: 250.654 U/L); type: organism-based; details: in vivo
[14] = Toxicity in C57BL/6 mouse assessed as tremor upto 200 mg/kg, ip measured after 24 hrs; type: organism-based; details: in vivo
[15] = Toxicity in C57BL/6 mouse assessed as dyspnea upto 200 mg/kg, ip measured after 24 hrs; type: organism-based; details: in vivo
[16] = Toxicity in C57BL/6 mouse assessed as lethargy upto 200 mg/kg, ip measured after 24 hrs; type: organism-based; details: in vivo
[17] = biological target: T1, Microtubule-associated protein 1 light chain 3 beta/Epidermal growth factor receptor; assay: ATTEC activity at LC3B/EGFR in MLN4924-treated human HCC827 cells assessed as protein degradation at 1 uM incubated for 12 hrs by Western blot analysis; type: cell-based
[18] = biological target: T1, Microtubule-associated protein 1 light chain 3 beta/Epidermal growth factor receptor; assay: ATTEC activity at LC3B/EGFR in human HCC827 cells assessed as protein degradation; type: cell-based
[19] = Toxicity in C57BL/6 mouse assessed as serum uric acid level at 200 mg/kg, ip measured after 24 hrs (reference value: 78.784 umol/L); type: organism-based; details: in vivo
[20] = Toxicity in C57BL/6 mouse assessed as serum ALT level at 200 mg/kg, ip measured after 24 hrs (reference value: 42.554 U/L); type: organism-based; details: in vivo
[21] = Toxicity in C57BL/6 mouse assessed as histological change in liver upto 200 mg/kg, ip measured after 24 hrs by H and E staining based analysis; type: organism-based; details: in vivo
[22] = Toxicity in C57BL/6 mouse assessed as serum creatinine level at 100 mg/kg, ip measured after 24 hrs (reference value: 32.258 umol/L); type: organism-based; details: in vivo
[23] = biological target: T1, Microtubule-associated protein 1 light chain 3 beta/Epidermal growth factor receptor; assay: Binding affinity to biotinylated LC3B/EGFR in human HCC827 cells assessed as dissociation constant BLI assay; type: cell-based
PC-9 [24] = assay: In vivo ATTEC activity at LC3B/EGFR in human PC-9 cells implanted in NOD-SCID mouse assessed as protein degradation at 20 mg/kg, ip measured after 24 hrs by Western blot analysis; type: functional, organism-based
[25] = Toxicity in C57BL/6 mouse assessed as serum ALB level at 100 mg/kg, ip measured after 24 hrs (reference value: 40.01 g/L); type: organism-based; details: in vivo
A549 = assay: Antiproliferative activity against human A549 cells incubated for 72 hrs by CCK8 assay; type: functional, cell-based; details: A549, 72 h
[26] = biological target: T1, Microtubule-associated protein 1 light chain 3 beta/Epidermal growth factor receptor; assay: ATTEC activity at LC3B/EGFR in Baf-treated human HCC827 cells assessed as protein degradation at 1 uM incubated for 16 hrs by Western blot analysis; type: cell-based

Activity [4]: Active
DC50 [6]: 980 nM
half-life [7]: 18.4 min
Activity [9]: inactive
Activity [10]: Active
Activity [12]: Active
Activity [17]: Active
Activity [18]: Active
Kd [23]: 710 nM
IC50 (A549): > 10000 nM
Activity [26]: inactive
SMILES: COc1cc2ncnc(Nc3ccc(F)c(Cl)c3)c2cc1OCCOCCOCCOCCNC(=O)COc1c(Br)cc(/C=C2\C(=O)Nc3ccc(I)cc32)cc1Br
Activity [1]: Non-Toxic
Activity [2]: 30.848 µmol/L
Activity [3]: 185.73 U/L
inhibition in vivo at 5 mg/kg (PC-9 [5]): 35%
inhibition (PC-9 [8]): Dose-Dependent Effect
Activity [11]: 17.83 µmol/L
Activity [13]: 177.394 U/L
Activity [14]: Non-Toxic
Activity [15]: Non-Toxic
Activity [16]: Non-Toxic
Activity [19]: 49.734 µmol/L
Activity [20]: 43.302 U/L
Activity [21]: Non-Toxic
Activity [22]: 27.8 µmol/L
Activity (PC-9 [24]): Active
Activity [25]: 35.48 g/L
